{"source": "patent US10676418B2", "about": "“Method for producing microparticles from pressurized and heated starting material solution” (M. TECHNIQUE CO., LTD., priority 2016, dated 2020)", "origin": "cited, not measured here", "conditions": "25° C.; normal temperature and pressure"}
{"smiles": "COc1cc(/C=C/C(=O)CC(=O)/C=C/c2ccc(O)c(OC)c2)ccc1O", "note": "[curcumin]", "values": [{"measurement": "solubility in ethanol", "value": "about 0.5 % by weight"}]}
